# Laboratory results as given in patent EP0674636B1, “QUINUCLIDINE DERIVATIVES AS SQUALENE SYNTHASE INHIBITORS” (ZENECA LIMITED, priority 1992, dated 1994).
# How the values were obtained:
# [1] = system: de novo hepatic cholesterol synthesis; experiment: Acute rat cholesterol synthesis assay (de novo hepatic cholesterol synthesis from 14C-acetate); type: in vivo; settings: at 50mg/kg; female rats
# Protocol: (b) Acute rat cholesterol synthesis assay.
# This is an acute in vivo test in the rat to measure de novo hepatic cholesterol synthesis from exogenously administered ^14C-acetate.
# Female rats (35 - 55 g) are housed in reverse lighting conditions (red light from 0200h - 1400h) for a period of about 2 weeks prior to test. Animals are allowed free access to chow and drinking water throughout this period. At test, animals should weigh 125 - 150 g.
# Test compounds may be administered by oral gavage, dissolved or suspended in 0.5% polysorbate, or by ip or iv dosing. Control animals receive vehicle alone. After 1 hour the rats are injected ip with 25µCi [2-^14C]-acetate (NEN DUPONT. specific activity, 45-60mCi/mmol NEC-085H, or AMERSHAM specific activity, 50-60mCi/mmol CFA 14) in a volume of 0.25 ml saline (100µCi/ml). After a further hour, rats are terminally anaesthetised with halothane and a blood sample obtained from the abdominal vena cava.
# 1ml of plasma is lyophilised and then saponified in 2ml ethanolic KOH (1 part 33% KOH, 9 parts ethanol) at 75°C for 2 hours. After addition of an equal quantity of water, non-saponifiable lipids are extracted with two 5ml volumes of hexane. The hexane extracts are evaporated to dryness and the residues dissolved in ethanol to determine cholesterol specific radioactivity. ED50 values can be determined in the standard way.
# [2] = target: T1, Squalene synthase (Rattus norvegicus, UniProt Q02769); experiment: Inhibition of squalene synthase (formation of squalene from tritiated farnesyl pyrophosphate by rat liver microsomal protein); type: biochemical; settings: substrate 1-[3H]-farnesyl pyrophosphate 20µM
# T1 construct: from tissue; host or cells: rat liver microsomes
# T1 sequence (Q02769 1-416): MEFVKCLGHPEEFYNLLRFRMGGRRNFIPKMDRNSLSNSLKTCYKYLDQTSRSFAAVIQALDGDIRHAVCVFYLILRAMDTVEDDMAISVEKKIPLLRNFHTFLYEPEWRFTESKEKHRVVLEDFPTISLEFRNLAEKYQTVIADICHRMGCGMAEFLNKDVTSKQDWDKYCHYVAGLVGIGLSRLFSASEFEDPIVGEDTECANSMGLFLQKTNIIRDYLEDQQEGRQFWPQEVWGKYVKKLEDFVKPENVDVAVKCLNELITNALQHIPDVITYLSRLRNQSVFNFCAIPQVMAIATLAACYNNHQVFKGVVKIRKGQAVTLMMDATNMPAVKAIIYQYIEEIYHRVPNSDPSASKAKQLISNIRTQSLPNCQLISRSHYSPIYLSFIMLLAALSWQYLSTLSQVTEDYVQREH
# Protocol: (a) Inhibition of Squalene synthase
# In this test, the ability of a compound to prevent the formation of squalene from a radioactive substrate (tritiated farnesyl pyrophosphate) is assessed.
# The test compound is incubated at a concentration of 25 micromolar in 200µl of a buffered solution containing potassium phosphate (50mM), MgCl2 (4.95mM), KF (9.9mM), NADPH (0.9mM) and rat liver microsomal protein (20µg). Rat liver microsomes are prepared by the method described in published European Patent Application No. 324,421 and stored in liquid nitrogen prior to assay. Assay vials are kept at 37°C throughout the incubation.
# The reaction is started with the addition of the substrate (1-[^3H]-farnesyl pyrophosphate), final concentration 20µM, and stopped after 15 minutes reaction time with the addition of 50µl of 4% KOH. The reaction products are separated from unreacted substrate after application to a C-18 octadecyl lccBond column (Analytichem Int product No. 617101). An aqueous fraction is eluted with 250µl of 0.1M KOH. Squalene is then eluted with 1.0 ml 10% ethylacetate in hexane and radioactivity determined. The difference in radioactivity in the presence and absence of the test compound is used to determine the level of inhibition. […] The IC50 can then be determined from a plot of percentage inhibition against concentration of test compound.
compound,measurement,setting,value
"OC1(c2ccc(/C=C/c3cccnc3)cc2)CN2CCC1CC2 (centres unmarked) [Example 2, 3-(4-[(E)-2-(3-pyridyl)vinyl]phenyl)quinuclidin-3-ol]",reduction in the rate of cholesterol biosynthesis,[1],72%
same,inhibition at 2.5 µM,[2],~89%
